In PubChem BioAssay (NCI):
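Five concentrations, 48 hours, 96-well plates. TGI is the concentration that stops growth completely.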

What was measured:
Test in all cases: growth of human tumour cells (NCI), 48 h
786-0 renal = tested on: 786-0 renal
A498 renal = tested on: A498 renal
A549 NSCLC = tested on: A549 NSCLC
ACHN renal = tested on: ACHN renal
BT-549 breast = tested on: BT-549 breast
CAKI-1 renal = tested on: CAKI-1 renal
COLO 205 colon = tested on: COLO 205 colon
DU-145 prostate = tested on: DU-145 prostate
EKVX NSCLC = tested on: EKVX NSCLC
HCC-2998 colon = tested on: HCC-2998 colon
HCT-15 colon = tested on: HCT-15 colon
HOP-62 NSCLC = tested on: HOP-62 NSCLC
HOP-92 NSCLC = tested on: HOP-92 NSCLC
HS 578T breast = tested on: HS 578T breast
HT29 colon = tested on: HT29 colon
IGROV1 ovarian = tested on: IGROV1 ovarian
K-562 leukemia = tested on: K-562 leukemia
KM12 colon = tested on: KM12 colon
LOX IMVI melanoma = tested on: LOX IMVI melanoma
M14 melanoma = tested on: M14 melanoma
MALME-3M melanoma = tested on: MALME-3M melanoma
MCF7 breast = tested on: MCF7 breast
MDA-MB-231 breast = tested on: MDA-MB-231 breast
MDA-MB-435 = tested on: MDA-MB-435
MDA-N = tested on: MDA-N
MOLT-4 leukemia = tested on: MOLT-4 leukemia
NCI-H226 lung = tested on: NCI-H226 lung
NCI-H23 lung = tested on: NCI-H23 lung
NCI-H460 lung = tested on: NCI-H460 lung
NCI-H522 lung = tested on: NCI-H522 lung
NCI/ADR-RES ovarian = tested on: NCI/ADR-RES ovarian
OVCAR-3 ovarian = tested on: OVCAR-3 ovarian
OVCAR-4 ovarian = tested on: OVCAR-4 ovarian
OVCAR-5 ovarian = tested on: OVCAR-5 ovarian
OVCAR-8 ovarian = tested on: OVCAR-8 ovarian
PC-3 prostate = tested on: PC-3 prostate
RPMI-8226 leukemia = tested on: RPMI-8226 leukemia
RXF 393 renal = tested on: RXF 393 renal
SF-268 CNS = tested on: SF-268 CNS
SF-295 CNS = tested on: SF-295 CNS
SF-539 CNS = tested on: SF-539 CNS
SK-MEL-2 melanoma = tested on: SK-MEL-2 melanoma
SK-MEL-28 melanoma = tested on: SK-MEL-28 melanoma
SK-MEL-5 melanoma = tested on: SK-MEL-5 melanoma
SK-OV-3 ovarian = tested on: SK-OV-3 ovarian
SN12C renal = tested on: SN12C renal
SNB-19 CNS = tested on: SNB-19 CNS
SNB-75 CNS = tested on: SNB-75 CNS
SW-620 colon = tested on: SW-620 colon
T-47D breast = tested on: T-47D breast
TK-10 renal = tested on: TK-10 renal
U251 CNS = tested on: U251 CNS
UACC-257 melanoma = tested on: UACC-257 melanoma
UACC-62 melanoma = tested on: UACC-62 melanoma
UO-31 renal = tested on: UO-31 renal

SMILES: C=C(C)C1CC2=C(O1)C(=O)c1cccc(O)c1C2=O (stereo not given)
- TGI (786-0 renal): > 100000 nM
- TGI (A498 renal): 10200 nM
- TGI (A549 NSCLC): 4900 nM
- TGI (ACHN renal): 3230 nM
- TGI (BT-549 breast): 1630 nM
- TGI (CAKI-1 renal): 2080 nM
- TGI (COLO 205 colon): 3250 nM
- TGI (DU-145 prostate): 3150 nM
- TGI (EKVX NSCLC): 2520 nM
- TGI (HCC-2998 colon): 3970 nM
- TGI (HCT-15 colon): 4360 nM
- TGI (HOP-62 NSCLC): 2940 nM
- TGI (HOP-92 NSCLC): 11500 nM
- TGI (HS 578T breast): 5340 nM
- TGI (HT29 colon): 3130 nM
- TGI (IGROV1 ovarian): 617 nM
- TGI (K-562 leukemia): 689 nM
- TGI (KM12 colon): 3270 nM
- TGI (LOX IMVI melanoma): > 22800 nM
- TGI (M14 melanoma): 2430 nM
- TGI (MALME-3M melanoma): 2310 nM
- TGI (MCF7 breast): 1960 nM
- TGI (MDA-MB-231 breast): 3640 nM
- TGI (MDA-MB-435): 271 nM
- TGI (MDA-N): 132 nM
- TGI (MOLT-4 leukemia): 422 nM
- TGI (NCI-H226 lung): 3460 nM
- TGI (NCI-H23 lung): 935 nM
- TGI (NCI-H460 lung): 3750 nM
- TGI (NCI-H522 lung): 1730 nM
- TGI (NCI/ADR-RES ovarian): 2780 nM
- TGI (OVCAR-3 ovarian): 924 nM
- TGI (OVCAR-4 ovarian): 926 nM
- TGI (OVCAR-5 ovarian): 3010 nM
- TGI (OVCAR-8 ovarian): 1810 nM
- TGI (PC-3 prostate): 3670 nM
- TGI (RPMI-8226 leukemia): 1220 nM
- TGI (RXF 393 renal): 2540 nM
- TGI (SF-268 CNS): 1470 nM
- TGI (SF-295 CNS): 2730 nM
- TGI (SF-539 CNS): 1890 nM
- TGI (SK-MEL-2 melanoma): 2680 nM
- TGI (SK-MEL-28 melanoma): 3330 nM
- TGI (SK-MEL-5 melanoma): 304 nM
- TGI (SK-OV-3 ovarian): 2860 nM
- TGI (SN12C renal): 2440 nM
- TGI (SNB-19 CNS): 3110 nM
- TGI (SNB-75 CNS): 3870 nM
- TGI (SW-620 colon): 2960 nM
- TGI (T-47D breast): 3040 nM
- TGI (TK-10 renal): 5370 nM
- TGI (U251 CNS): 3010 nM
- TGI (UACC-257 melanoma): 1010 nM
- TGI (UACC-62 melanoma): 2180 nM
- TGI (UO-31 renal): 2840 nM
